Test: stability in the manufacture of pharmaceutical compositions
Assay type: physicochemical
Settings: monohydrate form; qualitative statement, no test described

For `CNC(=O)c1cc(Oc2ccc(NC(=O)Nc3ccc(Cl)c(C(F)(F)F)c3)c(F)c2)ccn1` [compound of the formula (II), 4-[4-({[4-chloro-3-(trifluoromethyl)phenyl]carbamoyl}amino)-3-fluorophenoxy]-N-methylpyridine-2-carboxamide monohydrate], the “stability in the manufacture of pharmaceutical compositions” value was “high stability”.

Source: patent publication US9957232B2, “4-[4-({[4-chloro-3-(trifluoromethyl)phenyl]carbamoyl}amino)-3-fluorophenoxy]-N-methylpyridine-2-carboxamide monohydrate” (BAYER HEALTHCARE LLC, priority 2006, dated 2018)
